`*/C(C)=C(/*)[Si](C)(C)C` (repeat unit) gave a CH4 permeability of 15000 Barrer, a CO2 permeability of 28600 Barrer, an H2 permeability of 15000 Barrer and an N2 permeability of 6600 Barrer. This compound also yielded an O2 permeability of 9000 Barrer.
`*/C=C/C1CC(*)CC1[Si](C)(C)C[Si](C)(C)C` (repeat unit) came in with a CH4 permeability of 8.5 Barrer, a CO2 permeability of 67 Barrer, an H2 permeability of 73 Barrer and an N2 permeability of 3.7 Barrer. The same compound yielded an O2 permeability of 16 Barrer.
Compound `*/C=C/C1CCC(*)C1` (repeat unit) showed a CH4 permeability of 2.5 Barrer, a CO2 permeability of 15.4 Barrer, an H2 permeability of 21 Barrer and an N2 permeability of 1.5 Barrer. For the same compound, the O2 permeability worked out at 2.8 Barrer.
Compound `*/N=C1/c2ccc(C(c3ccc4c(c3)-c3nc5cc(Oc6ccc(*)c(*)c6)ccc5n3C4=O)(C(F)(F)F)C(F)(F)F)cc2C(=O)N1*` (repeat unit) showed a CH4 permeability of 0.54 Barrer, a CO2 permeability of 27.6 Barrer, an N2 permeability of 1.2 Barrer and an O2 permeability of 7.9 Barrer.
With `*=CC1CC(C=*)C(C(F)(F)F)(C(F)(F)F)C1(F)F` (repeat unit), the CH4 permeability turned out to be 9.54 Barrer, the CO2 permeability is 102 Barrer, the N2 permeability came to 10.7 Barrer and the O2 permeability turned out to be 27.7 Barrer.
The compound `*C(C)=C(*)[Si](C)(C)C` (repeat unit) registered a CH4 permeability of 14500 Barrer, a CO2 permeability of 31900 Barrer, an H2 permeability of 15500 Barrer and an N2 permeability of 5650 Barrer. Moreover, the O2 permeability came to 12200 Barrer.
`*C(F)(F)C(*)(F)F` (repeat unit) yielded a CH4 permeability of 10 Barrer, a CO2 permeability of 12.7 Barrer and an O2 permeability of 4.9 Barrer.
As for `*C1C(*)C2CC1C1C2C([Si](C)(C)C)C1[Si](C)(C)C` (repeat unit), the CH4 permeability was found to be 3310 Barrer, the CO2 permeability amounted to 11300 Barrer, the H2 permeability is 4090 Barrer and the N2 permeability came out at 1240 Barrer. Further, the O2 permeability was determined as 2380 Barrer.
`*C1C2CC(C1*)C([Si](C)(C)C)C2` (repeat unit) registered a CH4 permeability of 1090 Barrer, an H2 permeability of 6700 Barrer and an O2 permeability of 1700 Barrer.
In turn, `*C1C2CC(CF)C(C2)C1*` (repeat unit) registered a CH4 permeability of 13 Barrer, a CO2 permeability of 200 Barrer, an H2 permeability of 166 Barrer and an N2 permeability of 17 Barrer. This compound also showed an O2 permeability of 50 Barrer.
As to `*C=C(*)c1cccc(O[Si](C)(C)C(C)(C)C)c1` (repeat unit), the CH4 permeability was 12 Barrer, the CO2 permeability turned out to be 58 Barrer, the H2 permeability stood at 64 Barrer and the N2 permeability was 7.6 Barrer. The O2 permeability came to 17 Barrer.
For the compound `*CC(*)(C)C(=O)OCC` (repeat unit), the CH4 permeability was found to be 0.347 Barrer, the CO2 permeability amounted to 6.03 Barrer, the H2 permeability worked out at 21.8 Barrer and the N2 permeability came out at 0.276 Barrer. The O2 permeability was found to be 1.52 Barrer.
In turn, `*CC(*)(C)C(=O)OCC(F)(F)C(F)(F)C(F)(F)C(F)(F)C(F)(F)C(F)(F)C(F)(F)F` (repeat unit) had a CH4 permeability of 14 Barrer, a CO2 permeability of 130 Barrer, an H2 permeability of 82 Barrer and an N2 permeability of 15 Barrer. Also, the O2 permeability came to 30 Barrer.
On to `*CC(*)(C)C(=O)OCCOCC` (repeat unit), for which the CH4 permeability came out at 1.23 Barrer, the CO2 permeability was determined as 8.56 Barrer, the N2 permeability worked out at 0.385 Barrer and the O2 permeability stood at 1.45 Barrer.
Taken in the same sequence, the figures for `*CC(*)(C)c1ccccc1` (repeat unit) were 0.14 Barrer, 3 Barrer, 0.15 Barrer and 0.82 Barrer.
On to `*CC(*)(F)F` (repeat unit), for which the CH4 permeability came to 0.02 Barrer, the CO2 permeability amounted to 0.517 Barrer, the H2 permeability is 0.538 Barrer and the N2 permeability worked out at 0.0223 Barrer. Moreover, the O2 permeability amounted to 0.0826 Barrer.
In the case of `*CC(*)C(=O)OC` (repeat unit), the CH4 permeability came out at 0.262 Barrer, the CO2 permeability came out at 8.19 Barrer, the H2 permeability was found to be 10.6 Barrer and the N2 permeability worked out at 0.213 Barrer. The O2 permeability amounted to 1.06 Barrer.
In turn, `*CC(*)C(=O)OCC` (repeat unit) returned a CH4 permeability of 14.9 Barrer, a CO2 permeability of 176 Barrer, an H2 permeability of 60.4 Barrer and an N2 permeability of 6.46 Barrer. The compound also gave an O2 permeability of 19 Barrer.
The compound `*CC(*)C(=O)OCCCCCCCCCC` (repeat unit) showed a CH4 permeability of 47.8 Barrer, a CO2 permeability of 261 Barrer, an H2 permeability of 92.7 Barrer and an N2 permeability of 19 Barrer. Moreover, the O2 permeability was determined as 47.6 Barrer.
Consider `*CC(*)OC(=O)c1ccc(C)cc1` (repeat unit), for which the CH4 permeability was 0.417 Barrer, the CO2 permeability turned out to be 6.73 Barrer, the N2 permeability was 0.339 Barrer and the O2 permeability turned out to be 1.72 Barrer.
For `*CC(*)[Si](C)(C)C` (repeat unit), the CH4 permeability was determined as 18 Barrer, the CO2 permeability worked out at 190 Barrer, the H2 permeability turned out to be 200 Barrer and the N2 permeability turned out to be 11 Barrer. This compound showed an O2 permeability of 44 Barrer.
In turn, `*CC(*)c1ccc(C)cc1` (repeat unit) registered a CH4 permeability of 2.2 Barrer, a CO2 permeability of 29.8 Barrer, an N2 permeability of 1.5 Barrer and an O2 permeability of 7.2 Barrer.
Turning to `*CC(*)c1ccc(Cl)cc1` (repeat unit), the CH4 permeability was 0.26 Barrer, the CO2 permeability was determined as 4.3 Barrer, the N2 permeability is 0.23 Barrer and the O2 permeability was 1.2 Barrer.
Taken in the same sequence, the figures for `*CC(*)c1ccc(OC(C)=O)cc1` (repeat unit) were 0.99 Barrer, 16.3 Barrer, 0.64 Barrer and 3.1 Barrer.
`*CC(*)c1ccc(OC)cc1` (repeat unit) yielded a CH4 permeability of 0.91 Barrer, a CO2 permeability of 18.9 Barrer, an N2 permeability of 0.61 Barrer and an O2 permeability of 2.6 Barrer.
Consider `*CC(*)c1ccc([Si](C)(C)C)cc1` (repeat unit), for which the CH4 permeability is 34 Barrer, the CO2 permeability is 227 Barrer, the H2 permeability stood at 182 Barrer and the N2 permeability was 16 Barrer. Besides, the O2 permeability amounted to 56 Barrer.
In the case of `*CC(C)C(=O)OC(C)C(*)=O` (repeat unit), the CH4 permeability stood at 1 Barrer, the CO2 permeability was found to be 0.905 Barrer, the N2 permeability is 0.04 Barrer and the O2 permeability turned out to be 0.26 Barrer.
`*CC*` (repeat unit) had a CH4 permeability of 3.85 Barrer, a CO2 permeability of 7.32 Barrer, an N2 permeability of 0.237 Barrer and an O2 permeability of 0.735 Barrer.
The compound `*CC1CC(C*)C2C1C([Si](O[Si](C)(C)C)(O[Si](C)(C)C)O[Si](C)(C)C)C2[Si](O[Si](C)(C)C)(O[Si](C)(C)C)O[Si](C)(C)C` (repeat unit) gave a CH4 permeability of 215 Barrer, a CO2 permeability of 840 Barrer, an H2 permeability of 460 Barrer and an N2 permeability of 75 Barrer. This compound came in with an O2 permeability of 220 Barrer.
